In DBAASP:
≈ marks a conversion by molar mass, not a printed value.

Legend:
Assay in all cases: ≥ marks a high value that may be exact or a test limit, other limits are often not marked, values filed in µg/mL are converted to µM
[1] = tested on: Bacillus subtilis ATCC 6633
[2] = tested on: Escherichia coli ATCC 25922
[3] = tested on: Salmonella enterica subsp. enterica serovar Enteritidis BNCC 103134
[4] = tested on: Staphylococcus aureus ATCC 25923
[5] = tested on: Acinetobacter baumannii
[6] = tested on: Pseudomonas aeruginosa ATCC 10662
[7] = tested on: Staphylococcus aureus
[8] = tested on: Staphylococcus epidermidis ATCC 1435
[9] = tested on: Candida albicans ATCC 10231
[10] = tested on: Cryptococcus neoformans ATCC 32045
[11] = tested on: Escherichia coli ATCC 2592
[12] = tested on: Pseudomonas aeruginosa ATCC 10145
[13] = tested on: Staphylococcus aureus ATCC 33591
[14] = tested on: Bacillus subtilis 168
[15] = tested on: Candida glabrata ATCC 2001
[16] = tested on: Candida tropicalis ATCC 13803
[17] = tested on: Klebsiella pneumoniae ATCC 13883
[18] = tested on: Pseudomonas aeruginosa PAO1
[19] = tested on: Staphylococcus aureus MU50
[20] = tested on: Staphylococcus aureus Newman
[21] = tested on: Staphylococcus aureus UAMS-1
[22] = tested on: Staphylococcus aureus USA 200
[23] = tested on: Staphylococcus aureus USA 300
[24] = tested on: Staphylococcus aureus USA 400
[25] = tested on: Staphylococcus epidermidis 1457
[26] = tested on: Aeromonas salmonicida MT004
[27] = tested on: Aeromonas salmonicida MT423
[28] = tested on: Escherichia coli NCIMB 12260
[29] = tested on: Lactococcus garvieae MT2055
[30] = tested on: Lactococcus garvieae MT2291
[31] = tested on: Vibrio anguillarum MT1741
[32] = tested on: Vibrio anguillarum MT1742
[33] = tested on: Yersinia ruckeri MT252
[34] = tested on: Listeria monocytogenes KCTC 19111
[35] = tested on: Pseudomonas aeruginosa ATCC 15692
[36] = tested on: Salmonella typhimurium KCTC 1926
[37] = tested on: Staphylococcus epidermidis KCTC 1917
[38] = tested on: Bacillus subtilis 168 HT
[39] = tested on: Escherichia coli MG1655

C[C@@H](O)[C@H](NC(=O)[C@H](Cc1ccccc1)NC(=O)[C@H](CO)NC(=O)[C@@H](NC(=O)[C@@H]1CCCN1C(=O)[C@@H](N)Cc1c[nH]c2ccccc12)[C@@H](C)O)C(=O)O [WPTSFT]
MIC [1]: ≥ 300 µM
MIC [2]: 200 µM (≈ 148 µg/mL)
MIC [3]: ≥ 350 µM
MIC [4]: 300 µM (≈ 221 µg/mL)

CC[C@H](C)[C@H](NC(=O)[C@H](Cc1cnc[nH]1)NC(=O)[C@H](Cc1cnc[nH]1)NC(=O)[C@H](Cc1ccccc1)NC(=O)[C@@H](N)Cc1ccccc1)C(=O)N[C@@H](Cc1ccccc1)C(=O)N[C@@H](CCCN=C(N)N)C(=O)NCC(=O)N[C@@H](CCCCN)C(=O)N[C@H](C(=O)N[C@@H](Cc1cnc[nH]1)C(=O)N[C@H](C(=O)NCC(=O)N[C@@H](CCCCN)C(=O)N[C@H](C(=O)N[C@H](C(=O)N[C@@H](Cc1cnc[nH]1)C(=O)N[C@@H](CCCN=C(N)N)C(=O)N[C@@H](CC(C)C)C(=O)N[C@H](C(=O)N[C@H](C(=O)NCC(N)=O)[C@@H](C)O)C(C)C)[C@@H](C)CC)[C@@H](C)O)C(C)C)C(C)C [FFHHIFRGKVHVGKTIHRLVTG]
MIC [5]: 1.2 µM (≈ 3.1 µg/mL)
MIC [2]: 1.2 µM (≈ 3.1 µg/mL)
MIC [6]: 9.66 µM (≈ 25 µg/mL)
MIC [4]: 1.2 µM (≈ 3.1 µg/mL)
MIC [7]: 2.4 µM (≈ 6.2 µg/mL)
MIC [8]: 1.2 µM (≈ 3.1 µg/mL)

C[C@H](NC(=O)[C@H](Cc1ccccc1)NC(=O)[C@H](CCCCN)NC(=O)[C@H](CCCCN)NC(=O)[C@H](C)NC(=O)[C@H](Cc1ccccc1)NC(=O)[C@H](CCCCN)NC(=O)[C@H](CCCCN)NC(=O)[C@H](C)NC(=O)[C@H](Cc1ccccc1)NC(=O)[C@H](CCCCN)NC(=O)[C@H](CCCCN)NC(=O)[C@H](C)NC(=O)[C@H](Cc1ccccc1)NC(=O)[C@H](CCCCN)NC(=O)[C@H](CCCCN)NC(=O)[C@H](C)NC(=O)[C@H](Cc1ccccc1)NC(=O)[C@H](CCCCN)NC(=O)[C@H](CCCCN)NC(=O)[C@H](C)NC(=O)[C@H](Cc1ccccc1)NC(=O)[C@H](CCCCN)NC(=O)[C@H](CCCCN)NC(=O)[C@H](C)NC(=O)[C@H](Cc1ccccc1)NC(=O)[C@@H](N)CCCCN)C(=O)N[C@@H](CCCCN)C(=O)O [KFAKKFAKKFAKKFAKKFAKKFAKKFAK]
MIC [9]: 33.5 µM (≈ 112 µg/mL)
MIC [10]: 13.3 µM (≈ 44.5 µg/mL)
MIC [11]: 13.3 µM (≈ 44.5 µg/mL)
MIC [12]: 4.79 µM (≈ 16 µg/mL)
MIC [13]: ≥ 74.8 µM

CC[C@H](C)[C@H](NC(=O)[C@H](C)NC(=O)[C@H](CO)NC(=O)[C@H](CC(C)C)NC(=O)[C@@H](N)Cc1ccccc1)C(=O)N[C@H](C(=O)N[C@@H](CO)C(=O)N[C@H](C(=O)N[C@@H](CC(C)C)C(=O)NCC(=O)N[C@@H](CCCCN)C(=O)N[C@@H](Cc1ccccc1)C(=O)N[C@@H](Cc1ccccc1)C(N)=O)[C@@H](C)CC)[C@@H](C)O [FLSAITSILGKFF]
MIC [14]: 12.5 µM (≈ 18 µg/mL)
MIC [9]: 25 µM (≈ 36.1 µg/mL)
MIC [15]: 25 µM (≈ 36.1 µg/mL)
MIC [16]: 6.2 µM (≈ 8.95 µg/mL)
MIC [2]: > 50 µM
MIC [17]: ≥ 50 µM
MIC [18]: > 50 µM
MIC [19]: 12.5 µM (≈ 18 µg/mL)
MIC [20]: 12.5 µM (≈ 18 µg/mL)
MIC [21]: 25 µM (≈ 36.1 µg/mL)
MIC [22]: 6.25 µM (≈ 9.02 µg/mL)
MIC [23]: 6.3 µM (≈ 9.09 µg/mL)
MIC [24]: 6.25 µM (≈ 9.02 µg/mL)
MIC [25]: 6.3 µM (≈ 9.09 µg/mL)

CC[C@H](C)[C@H](NC(=O)CNC(=O)[C@H](CCCCN)NC(=O)[C@@H](NC(=O)[C@@H](NC(=O)[C@H](Cc1cnc[nH]1)NC(=O)[C@H](Cc1cnc[nH]1)NC(=O)[C@@H](NC(=O)[C@@H](N)Cc1ccccc1)[C@@H](C)CC)[C@@H](C)CC)[C@@H](C)CC)C(=O)N[C@@H](Cc1ccccc1)C(=O)N[C@@H](Cc1cnc[nH]1)C(=O)N[C@H](C(=O)NCC(=O)N[C@@H](CCCCN)C(=O)N[C@@H](CCSC)C(=O)N[C@H](C(=O)N[C@@H](Cc1cnc[nH]1)C(=O)N[C@@H](CO)C(=O)N[C@@H](C)C(=O)N[C@H](C(=O)N[C@@H](CC(N)=O)C(=O)N[C@@H](CCCN=C(N)N)C(=O)N[C@@H](CCCN=C(N)N)C(=O)N[C@@H](CCCN=C(N)N)C(=O)N[C@@H](Cc1cnc[nH]1)C(=O)O)[C@@H](C)CC)[C@@H](C)CC)[C@@H](C)CC [FIHHIIKGIFHIGKMIHSAINRRRH]
MIC [26]: 0.528 µM (≈ 1.6 µg/mL)
MIC [27]: 0.528 µM (≈ 1.6 µg/mL)
MIC [28]: 0.528 µM (≈ 1.6 µg/mL)
MIC [29]: 0.528 µM (≈ 1.6 µg/mL)
MIC [30]: 0.528 µM (≈ 1.6 µg/mL)
MIC [31]: 0.528 µM (≈ 1.6 µg/mL)
MIC [32]: 0.528 µM (≈ 1.6 µg/mL)
MIC [33]: 0.528 µM (≈ 1.6 µg/mL)

NCCCC[C@H](NC(=O)[C@H](Cc1ccc(O)cc1)NC(=O)[C@H](Cc1c[nH]c2ccccc12)NC(=O)[C@H](CCCCN)NC(=O)[C@H](CCCCN)NC(=O)[C@H](Cc1ccc(O)cc1)NC(=O)[C@H](Cc1c[nH]c2ccccc12)NC(=O)[C@H](CCCCN)NC(=O)[C@H](CCCCN)NC(=O)[C@H](Cc1ccc(O)cc1)NC(=O)[C@H](Cc1c[nH]c2ccccc12)NC(=O)[C@H](CCCCN)NC(=O)[C@H](CCCCN)NC(=O)[C@H](Cc1ccc(O)cc1)NC(=O)[C@H](Cc1c[nH]c2ccccc12)NC(=O)[C@@H](N)CCCCN)C(N)=O [KWYKKWYKKWYKKWYK]
MIC [2]: 1 µM (≈ 2.44 µg/mL)
MIC [34]: 1 µM (≈ 2.44 µg/mL)
MIC [35]: 2 µM (≈ 4.88 µg/mL)
MIC [36]: 2 µM (≈ 4.88 µg/mL)
MIC [4]: 2 µM (≈ 4.88 µg/mL)
MIC [37]: 1 µM (≈ 2.44 µg/mL)

CC[C@H](C)[C@H](N)C(=O)N[C@@H](CCCCN)C(=O)N[C@H](C(=O)N[C@H](C(=O)N[C@@H](C)C(=O)N1CCC[C@H]1C(=O)N[C@@H](CCCCN)C(=O)N[C@@H](CCCCN)C(=O)N[C@H](C(=O)N[C@@H](CCCCN)C(=O)N[C@@H](CC(C)C)C(=O)O)[C@@H](C)CC)C(C)C)[C@@H](C)CC [IKIVAPKKIKL]
MIC [38]: ≥ 102 µM
MIC [39]: ≥ 102 µM
